Data: US10801035B2, “Plants having increased tolerance to herbicides” (BASF SE, priority 2011, dated 2020)

Tests used:
Wild type soybean plants = assay: Greenhouse herbicide spray test, non-transformed soybean cuttings; assay type: in vivo, Glycine max; settings: Wild type (no transgene), two weeks after herbicide treatment
Method: (§1) Transgenic plants expressing heterologous HPPD or HST enzymes are tested for tolerance against coumarone-derivative herbicides in greenhouse experiments.
(§2) For post emergence treatment, the test plants are first grown to a height of 3 to 15 cm, depending on the plant habit, and only then treated with the herbicides. For this purpose, the test plants are either sown directly and grown in the same containers, or they are first grown separately and transplanted into the test containers a few days prior to treatment.
(§3) For testing of T0 plants, cuttings can be used. In the case of soybean plants, an optimal shoot for cutting is about 7.5 to 10 cm tall, with at least two nodes present. Each cutting is taken from the original transformant (mother plant) and dipped into rooting hormone powder (indole-3-butyric acid, IBA). The cutting is then placed in oasis wedges inside a bio-dome. Wild type cuttings are also taken simultaneously to serve as controls. The cuttings are kept in the biodome for 5-7 days and then transplanted to pots and then acclimated in the growth chamber for two more days. Subsequently, the cuttings are transferred to the greenhouse, acclimated for approximately 4 days, and then subjected to spray tests as indicated.
Depending on the species, the plants are kept at 10-25° C. or 20-35° C. The test period extends over 3 weeks. During this time, the plants are tended and their response to the individual treatments is evaluated. Herbicide injury evaluations are taken at 2 and 3 weeks after treatment. Plant injury is rated on a scale of 0 to 9, 0 being no injury and 9 being complete death. Tolerance to coumarone-derivative herbicides can also be assessed in Arabidopsis. In this case transgenic Arabidopsis thaliana plants are assayed for improved tolerance to coumarone-derivative herbicides in 48-well plates. […] Seven to ten days after seeding growth inhibition is evaluated by comparison to wild type plants. Tolerance factor is calculated by dividing the plant growth IC50 value of transgenic plants containing a HPPD and/or HST sequence by that of wildtype plants. […]

[1] = system: transgenic soybean plants (T0 cuttings) expressing heterologous HPPD; assay: Greenhouse testing of transgenic soybean plants (T0 cuttings); assay type: in vivo, Glycine max; set-up: key: % injury: 0% = no injury, 100% = complete death; settings: two weeks after treatment
Method: as §1, §2, §3
Depending on the species, the plants are kept at 10-25° C. or 20-35° C. The test period extends over 3 weeks. During this time, the plants are tended and their response to the individual treatments is evaluated. Herbicide injury evaluations are taken at 2 and 3 weeks after treatment. Plant injury is rated on a scale of 0 to 9, 0 being no injury and 9 being complete death. Tolerance to coumarone-derivative herbicides can also be assessed in Arabidopsis. In this case transgenic Arabidopsis thaliana plants are assayed for improved tolerance to coumarone-derivative herbicides in 48-well plates. Seeds are surface sterilized by stirring for 5 min in ethanol+water (70+30 by volume), rinsing one time with ethanol+water (70+30 by volume) and two times with a sterile, deionized water. The seeds are resuspended in 0.1% agar dissolved in water (w/v). Four to five seeds per well are plated on solid nutrient medium consisting of half-strength Murashige Skoog nutrient solution, pH 5.8 (Murashige and Skoog (1962) Physiologia Plantarum 15: 473-497). Compounds are dissolved in dimethylsulfoxid (DMSO) and added to the medium prior solidification (final DMSO concentration 0.1%). Multi well plates are incubated in a growth chamber at 22° C., 75% relative humidity and 110 μmol Phot * m-2 * s-1 with 14: 10 h light: dark photoperiod. Seven to ten days after seeding growth inhibition is evaluated by comparison to wild type plants. Tolerance factor is calculated by dividing the plant growth IC50 value of transgenic plants containing a HPPD and/or HST sequence by that of wildtype plants. Additionally, T1 and T2 transgenic Arabidopsis plants can be tested for improved tolerance to coumarone-derivative herbicides in a greenhouse studies. Herbicide injury scoring is done 2-3 weeks after treatment and is rated on a scale of 0 to 100%, 0% being no injury and 100% being complete death.

Measured: Injury evaluation

CC1=NOC(c2c(Cl)ccc(C3=C(O)c4ncccc4N(CC(F)F)S3(=O)=O)c2Cl)C1 (stereo not drawn) [Inhibitor 1, 3-[2,4-dichloro-3-(3-methyl-4,5-dihydroisoxazol-5-yl)phenyl]-1-(2,2-difluoroethyl)-2,2-dioxo-pyrido[3,2-c]thiazin-4-ol]
15: [1]; event LJ409, dose 250 g/ha
5: [1]; event HT1833 (Arabidopsis HPPD_M335H, plastidic), dose 125 g/ha | [1]; event HT1833 (Arabidopsis HPPD_M335H, plastidic), dose 250 g/ha
20: [1]; event AV4283 (probably Synechococcus HPPD**, marked: tested at a half rate), dose line 62 g/ha | [1]; event AV4283 (probably Synechococcus HPPD**, marked: tested at a half rate), dose line 125 g/ha | [1]; event AV4283 (probably Synechococcus HPPD**, marked: tested at a half rate), dose line 250 g/ha | [1]; event LJ383, dose 250 g/ha
44: Wild type soybean plants; dose 125 g/ha
10: [1]; event AV4553 (Hordeum HPPD), dose 125 g/ha | [1]; event AV4553 (Hordeum HPPD), dose 250 g/ha | [1]; event LG6156 (Synechocystis HPPD), dose 125 g/ha | [1]; event LG6156 (Synechocystis HPPD), dose 250 g/ha | [1]; event LJ383, dose 62 g/ha | [1]; event LJ383, dose 125 g/ha | [1]; event LJ409, dose 62 g/ha | [1]; event LJ409, dose 125 g/ha
68: Wild type soybean plants; dose 250 g/ha
0: [1]; event AV4287 (marked: tested at a half rate), dose line 62 g/ha | [1]; event AV4287 (marked: tested at a half rate), dose line 125 g/ha | [1]; event AV4287 (marked: tested at a half rate), dose line 250 g/ha | [1]; event AV4553 (Hordeum HPPD), dose 62 g/ha | [1]; event HT1833 (Arabidopsis HPPD_M335H, plastidic), dose 62 g/ha | [1]; event LG5831** (Arabidopsis HPPD_M335H, plastidic), marked: tested at a half rate, dose line 62 g/ha | [1]; event LG5831** (Arabidopsis HPPD_M335H, plastidic), marked: tested at a half rate, dose line 125 g/ha | [1]; event LG5831** (Arabidopsis HPPD_M335H, plastidic), marked: tested at a half rate, dose line 250 g/ha | [1]; event LG6156 (Synechocystis HPPD), dose 62 g/ha | [1]; event LJ387 (Hordeum HPPD), dose 62 g/ha | [1]; event LJ387 (Hordeum HPPD), dose 125 g/ha | [1]; event LJ387 (Hordeum HPPD), dose 250 g/ha
26: Wild type soybean plants; dose 62 g/ha
